According to patent publication US20060063784A1, “Method of using substituted pyrazolo [1,5-a] pyrimidines” (priority 2004, published 2006):
Read-outs that look alike come from different tables or passages of the source.

Key:
LoVo Colon cell line = experiment: Cytotoxicity assay using LoVo colon cell line, SRB; format: cell-based; settings: read-out: Inhibition of LoVo
Method in brief: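 LoVo cells (4000/well, RPMI 1640 with 10% FBS, 37 °C, 7% CO2) seeded overnight, then exposed 4 days to serial dilutions spanning 5 pM-20 μM or 170 pg/ml-10 μg/ml. Survival by SRB staining; IC50 from curves relative to untreated controls.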

[1] = system: 80S14 (p21-deficient) cells; experiment: Cytotoxicity assay using isogenic cell lines: IC50 in 80S14 (p21-deficient) cells, SRB; format: cell-based, human
Method in brief: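 80S14 (p21-deficient) cells seeded at 12,000 cells/well overnight, then exposed 5 days at 37 °C to serial dilutions (5 pM–50 μM or 170 pg/ml–10 μg/ml). TCA-fixed, sulforhodamine B-stained, absorbance at 560 nm; IC50 taken from cytotoxicity curves versus untreated controls.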

[2] = Homo sapiens, 96 h, Cellular activity in LoVo cell, 4 days incubation, SRB
[3] = Homo sapiens, 120 h, 80S14 (p21-deficient) cells, 5 days, SRB, class symbols, read-out: IC50 for 80S14
[4] = Homo sapiens, 96 h, LoVo colon cells, 4 days incubation, SRB
[5] = Homo sapiens, 120 h, 80S14 p21-deficient cells, 5 days incubation, SRB, read-out: IC50 for 80SI4

Compound `O=C(c1nccs1)c1cnn2c(-c3cccc(NC(=O)C4CC4)c3)ccnc12` [Example 338, N-{3-[3-(1,3-Thiazol-2-ylcarbonyl)pyrazolo[1,5-a]pyrimidin-7-yl]phenyl}cyclopropanecarboxamide] has an IC50 (LoVo Colon cell line; [2]) of 0.1 to 1 µM and an IC50 [1, 3] of 1 to 10 µM.
With `O=C(Nc1cccc(-c2ccnc3c(C(=O)c4cccs4)cnn23)c1)OC1CCOCC1` [Example 176, tetrahydro-2H-pyran-4-yl 3-[3-(thien-2-ylcarbonyl)pyrazolo[1,5-a]pyrimidin-7-yl]phenylcarbamate] the IC50 (LoVo Colon cell line; [4]) was less than 0.1 µM and the IC50 [1, 5] was less than 1 µM.
`CC(CCNc1cccc(-c2ccnc3c(C(=O)c4cccs4)cnn23)c1)CC(C)(C)C` (centres unmarked) [Example 433, Thien-2-yl(7-{3-[(3,5,5-trimethylhexyl)amino]phenyl}pyrazolo[1,5-a]pyrimidin-3-yl)methanone] was tested, and the IC50 (LoVo Colon cell line; [2]) was 0.1 to 1 µM and the IC50 [1, 3] was 1 to 10 µM.
For `O=C(NCC1CCCO1)Nc1cccc(-c2ccnc3c(C(=O)c4cccs4)cnn23)c1` (centres unmarked) [Example 163, N-(tetrahydrofuran-2-ylmethyl)-N′-{3-[3-(thien-2-ylcarbonyl)pyrazolo[1,5-a]pyrimidin-7-yl]phenyl}urea], the IC50 (LoVo Colon cell line; [4]) was 0.1 to 1 µM and the IC50 [1, 5] was less than 1 µM.
In the case of `O=C(Nc1cc(-c2ccnc3c(C(=O)c4cccs4)cnn23)ccc1F)c1ccccc1Cl` [Example 376, 2-Chloro-N-{2-fluoro-5-[3-(thien-2-ylcarbonyl)pyrazolo[1,5-a]pyrimidin-7-yl]phenyl}benzamide], the IC50 (LoVo Colon cell line; [2]) is reported as less than 0.1 µM and the IC50 [1, 3] is reported as less than 1 µM.
In the case of `CN(C)c1ccc(-c2cccc(-c3ccnc4c(C(=O)c5cccs5)cnn34)c2)cc1` [Example 450, {7-[4′-(Dimethylamino)-1,1′-biphenyl-3-yl]pyrazolo[1,5-a]pyrimidin-3-yl}(thien-2-yl)methanone], the IC50 (LoVo Colon cell line; [2]) is reported as less than 0.1 µM and the IC50 [1, 3] is reported as less than 1 µM.
With `O=C(c1cccs1)c1cnn2c(-c3cccc(NCc4ccoc4)c3)ccnc12` [Example 369, (7-{3-[(3-Furylmethyl)amino]phenyl}pyrazolo[1,5-a]pyrimidin-3-yl)(thien-2-yl)methanone] the IC50 (LoVo Colon cell line; [2]) was 0.1 to 1 µM and the IC50 [1, 3] was 1 to 10 µM.
`O=C(c1cccs1)c1cnn2c(-c3cccc(-c4nnn(CCN5CCCC5)n4)c3)ccnc12` [Example 511, (7-{3-[2-(2-Pyrrolidin-1-ylethyl)-2H-tetraazol-5-yl]phenyl}pyrazolo[1,5-a]pyrimidin-3-yl)(thien-2-yl)methanone] gave an IC50 (LoVo Colon cell line; [2]) of 0.1 to 1 µM and an IC50 [1, 3] of less than 1 µM.
`O=C(Nc1ccc(Cl)c(-c2ccnc3c(C(=O)c4cccs4)cnn23)c1)c1ccccc1` [Example 341, N-{4-Chloro-3-[3-(thien-2-ylcarbonyl)pyrazolo[1,5-a]pyrimidin-7-yl]phenyl}benzamide] gave an IC50 (LoVo Colon cell line; [2]) of 0.1 to 1 µM and an IC50 [1, 3] of 1 to 10 µM.
Work on `O=C(c1cccs1)c1cnn2c(-c3cccc(-c4nnn(Cc5ccccn5)n4)c3)ccnc12` [Example 509, (7-{3-[2-(Pyridin-2-ylmethyl)-2H-tetraazol-5-yl]phenyl}pyrazolo[1,5-a]pyrimidin-3-yl)(thien-2-yl)methanone] yielded an IC50 (LoVo Colon cell line; [2]) of 0.1 to 1 µM and an IC50 [1, 3] of less than 1 µM.
`CCCCN(C)C(=O)Nc1cccc(-c2ccnc3c(C(=O)c4cccs4)cnn23)c1` [Example 156, N-butyl-N-methyl-N′-{3-[3-(thien-2-ylcarbonyl)pyrazolo[1,5-a]primidin-7-yl]phenyl}urea] gave an IC50 (LoVo Colon cell line; LoVo colon cells, 4 days incubation, SRB) of 0.1 to 1 µM and an IC50 ([1]; 80S14 p21-deficient cells, 5 days incubation, SRB, read-out: IC50 for 80SI4) of less than 1 µM.
For `CCc1ccc(-c2cccc(-c3ccnc4c(C(=O)c5cccs5)cnn34)c2)cc1` [Example 456, [7-(4′-Ethyl-1,1′-biphenyl-3-yl)pyrazolo[1,5-a]pyrimidin-3-yl](thien-2-yl)methanone], the IC50 (LoVo Colon cell line; [2]) was less than 0.1 µM and the IC50 [1, 3] was less than 1 µM.
With `O=C(c1cccs1)c1cnn2c(-c3cccc(-c4nnn(Cc5cccnc5)n4)c3)ccnc12` [Example 503, (7-{3-[2-(Pyridin-3-ylmethyl)-2H-tetraazol-5-yl]phenyl}pyrazolo[1,5-a]pyrimidin-3-yl)(thien-2-yl)methanone] the IC50 (LoVo Colon cell line; [2]) was 0.1 to 1 µM and the IC50 [1, 3] was less than 1 µM.
`O=C(Nc1cccc(-c2ccnc3c(C(=O)c4cccs4)cnn23)c1)OCCCCCl` [Example 26, 4-chlorobutyl 3-[3-(thien-2-ylcarbonyl)pyrazolo[1,5-a]pyrimidin-7-yl]phenylcarbamate] gave an IC50 (LoVo Colon cell line; [4]) of less than 0.1 µM and an IC50 [1, 5] of less than 1 µM.
With `O=C(NCCc1ccccc1)Nc1cccc(-c2ccnc3c(C(=O)c4cccs4)cnn23)c1` [Example 2, N-(2-phenylethyl)-N′-{3-[3-(thien-2-ylcarbonyl)pyrazolo[1,5-a]pyrimidin-7-yl]phenyl}urea] the IC50 (LoVo Colon cell line; [4]) was 0.1 to 1 µM and the IC50 [1, 5] was 1 to 10 µM.
Compound `O=C(Nc1cc(-c2ccnc3c(C(=O)c4cccs4)cnn23)ccc1F)OCCCl` [Example 381, 2-Chloroethyl 2-fluoro-5-[3-(thien-2-ylcarbonyl)pyrazolo[1,5-a]pyrimidin-7-yl]phenylcarbamate] has an IC50 (LoVo Colon cell line; Homo sapiens, LoVo, 96 h) of less than 0.1 µM and an IC50 ([1]; Homo sapiens, 80S14, 120 h, read-out: IC50 for 80S14 (uM)) of less than 1 µM.
Compound `Nc1ccc(-c2ccnc3c(C(=O)c4cccs4)cnn23)s1` [Example 345, [7-(5-Aminothien-2-yl)pyrazolo[1,5-a]pyrimidin-3-yl](thien-2-yl)methanone] has an IC50 (LoVo Colon cell line; [2]) of 1 to 20 µM and an IC50 [1, 3] of 10 to 50 µM.
With `CCN(CC)Cc1ccc(-c2cccc(-c3ccnc4c(C(=O)c5cccs5)cnn34)c2)cc1` [Example 462, (7-{4′-[(Diethylamino)methyl]-1,1′-biphenyl-3-yl}pyrazolo[1,5-a]pyrimidin-3-yl)(thien-2-yl)methanone] the IC50 (LoVo Colon cell line; [2]) was 0.1 to 1 µM and the IC50 [1, 3] was 1 to 10 µM.
For `Cc1cc(-c2cccc(NC(=O)C3CC3)c2)n2ncc(C(=O)c3cccs3)c2n1` [Example 276, N-{3-[5-Methyl-3-(2-thienylcarbonyl)pyrazolo[1,5-a]pyrimidin-7-yl]phenyl}cyclopropanecarboxamide], the IC50 (LoVo Colon cell line; [2]) was less than 0.1 µM and the IC50 [1, 3] was less than 1 µM.
Compound `O=C(c1cccs1)c1cnn2c(-c3cccc(-c4ccn(CCN5CCCC5)n4)c3)ccnc12` [Example 520, (7-{3-[1-(2-Pyrrolidin-1-ylethyl)-1H-pyrazol-3-yl]phenyl}pyrazolo[1,5-a]pyrimidin-3-yl)(thien-2-yl)methanone] has an IC50 (LoVo Colon cell line; [2]) of 0.1 to 1 µM and an IC50 [1, 3] of 1 to 10 µM.
With `CCCC(=O)Nc1cccc(-c2ccnc3c(C(=O)c4cccs4)cnn23)c1` [Example 148, N-{3-[3-(thien-2-ylcarbonyl)pyrazolo[1,5-a]pyrimidin-7-yl]phenyl}butanamide] the IC50 (LoVo Colon cell line; Homo sapiens, LoVo, 96 h) was less than 0.1 µM and the IC50 ([1]; Homo sapiens, 80S14, 120 h, read-out: IC50 for 80SI4 (uM)) was less than 1 µM.
`C/C=C/CNc1cccc(-c2ccnc3c(C(=O)c4cccs4)cnn23)c1` [Example 370, (7-{3-[(2E)-But-2-enylamino]phenyl}pyrazolo[1,5-a]pyrimidin-3-yl)(thien-2-yl)methanone] gave an IC50 (LoVo Colon cell line; [2]) of less than 0.1 µM and an IC50 [1, 3] of less than 1 µM.
For `O=C(O)CCC(=O)Nc1cccc(-c2ccnc3c(C(=O)c4cccs4)cnn23)c1` [Example 442, 4-Oxo-4-({3-[3-(thien-2-ylcarbonyl)pyrazolo[1,5-a]pyrimidin-7-yl]phenyl}amino)butanoic acid], the IC50 (LoVo Colon cell line; [2]) was 1 to 20 µM and the IC50 [1, 3] was 10 to 50 µM.
In the case of `CC(C)CC(=O)Nc1cncc(-c2ccnc3c(C(=O)c4cccs4)cnn23)c1` [Example 324, 3-Methyl-N-{5-[3-(2-thienylcarbonyl)pyrazolo[1,5-a]pyrimidin-7-yl]-3-pyridinyl}butanamide], the IC50 (LoVo Colon cell line; [2]) is reported as 0.1 to 1 µM and the IC50 [1, 3] is reported as 1 to 10 µM.
`Nc1cc(-c2ccnc3c(C(=O)c4cccs4)cnn23)cs1` [Example 331, [7-(5-Aminothien-3-yl)pyrazolo[1,5-a]pyrimidin-3-yl](thien-2-yl)methanone] was tested, and the IC50 (LoVo Colon cell line; [2]) was 1 to 20 µM and the IC50 [1, 3] was 1 to 10 µM.
